Molecular target: T1, AR protein (Homo sapiens, UniProt P10275)
T1 construct: endogenous in cells; host or cells: VCaP
T1 sequence (P10275 1-920): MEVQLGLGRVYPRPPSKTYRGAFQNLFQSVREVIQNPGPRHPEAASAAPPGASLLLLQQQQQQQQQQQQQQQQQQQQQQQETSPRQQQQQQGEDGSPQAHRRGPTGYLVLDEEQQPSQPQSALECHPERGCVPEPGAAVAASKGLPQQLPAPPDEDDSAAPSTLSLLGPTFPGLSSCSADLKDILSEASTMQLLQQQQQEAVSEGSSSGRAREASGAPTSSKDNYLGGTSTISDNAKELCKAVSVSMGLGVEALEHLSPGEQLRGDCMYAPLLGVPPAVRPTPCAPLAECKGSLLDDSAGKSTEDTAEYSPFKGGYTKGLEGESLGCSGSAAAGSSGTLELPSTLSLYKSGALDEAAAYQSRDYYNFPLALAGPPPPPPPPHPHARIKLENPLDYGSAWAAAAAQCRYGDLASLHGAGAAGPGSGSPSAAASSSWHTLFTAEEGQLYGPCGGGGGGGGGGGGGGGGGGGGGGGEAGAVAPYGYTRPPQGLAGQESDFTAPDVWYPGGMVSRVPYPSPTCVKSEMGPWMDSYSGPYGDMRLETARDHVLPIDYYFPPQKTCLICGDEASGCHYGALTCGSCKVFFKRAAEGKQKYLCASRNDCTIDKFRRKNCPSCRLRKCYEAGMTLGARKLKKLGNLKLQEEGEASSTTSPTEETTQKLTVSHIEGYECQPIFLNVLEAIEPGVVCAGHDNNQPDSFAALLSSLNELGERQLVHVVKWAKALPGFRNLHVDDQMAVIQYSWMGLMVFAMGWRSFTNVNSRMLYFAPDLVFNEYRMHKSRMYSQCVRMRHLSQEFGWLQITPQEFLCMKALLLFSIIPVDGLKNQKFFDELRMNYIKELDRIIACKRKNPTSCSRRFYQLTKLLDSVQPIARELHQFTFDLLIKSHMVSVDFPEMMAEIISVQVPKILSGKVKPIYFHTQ
Assay: AR protein degradation in VCaP cells, Western blotting
Type: cell-based
Design: key to AR protein degradation VCap 10 nM / AR protein degradation VCap 100 nM: A: >90% degradation (24 hr treatment); B: >50% degradation but <90% (24 hr treatment); C: >10% degradation but <50% (24 hr treatment); D: No significant degradation (24 hr treatment)
Details: 24 hr treatment; for percent AR protein degradation at 0.01 µM / AR protein degradation VCap 10 nM: 10 nM; for percent AR protein degradation at 0.1 µM / AR protein degradation VCap 100 nM: 100 nM
Method: The appropriate cell line, e.g., prostate cancer LNCaP, Vcap, or 22RV1 cell line, was treated with Compounds of the Disclosure as indicated. The treated cells were lysed with RIPA buffer. The AR level in the cell lysates was examined by western blotting and a specific AR antibody (ab194196, Abcam, Cambridge, MA 02139) with concentration of 1:20,000. GAPDH was used as a loading control.
Bands were quantified with ImageJ software. The relative numbers of each band obtained from normalization with its corresponding GAPDH level were compared with Prism 8 software. The DC50 values were produced from Prism 8, and the DC90 values were calculated with an equation=Bottom + (Top-Bottom)/(1+10^((LogEC50-X)*HillSlope) based on DC50 and Hillslope values.
The amount of AR protein degradation in VCap and MDA-MB-453 cells caused by representative Compounds of the Disclosure at the concentrations indicated is presented in Table 4, FIG. 1, and FIG. 2.

| percent AR protein degradation at 0.01 µM | percent AR protein degradation at 0.1 µM | AR protein degradation VCap 10 nM | AR protein degradation VCap 100 nM | Structure (SMILES) |
| --- | --- | --- | --- | --- |
| 10 to 50% | 10 to 50% | – | – | CC1(C)[C@H](Oc2ccc(C#N)c(Cl)c2)C(C)(C)[C@H]1N1Cc2cc(C(=O)N3CCC(N4Cc5cc6c(cc5C4)C(=O)N(C4CCC(=O)NC4=O)C6=O)CC3)ccc2C1=O (stereo partly drawn) [compound 5] |
| 10 to 50% | 10 to 50% | – | – | CC1(C)[C@H](Oc2ccc(C#N)c(Cl)c2)C(C)(C)[C@H]1N1Cc2cc(C(=O)N3CCC(CN4Cc5cc6c(cc5C4)C(=O)N(C4CCC(=O)NC4=O)C6=O)CC3)ccc2C1=O (stereo partly drawn) [compound 6] |
| 50 to 90% | > 90% | – | – | CC1(C)[C@H](Oc2ccc(C#N)c(Cl)c2)C(C)(C)[C@H]1N1Cc2cc(C(=O)N3CCC(CCN4Cc5cc6c(cc5C4)C(=O)N(C4CCC(=O)NC4=O)C6=O)CC3)ccc2C1=O (stereo partly drawn) [compound 7] |
| > 90% | > 90% | – | – | N#Cc1ccc(O[C@H]2CC[C@H](NC(=O)c3ccc(N4CCC(CN5Cc6cc7c(cc6C5)C(=O)N(C5CCC(=O)NC5=O)C7=O)CC4)cc3)CC2)cc1Cl (stereo partly drawn) [compound 8, N-((1r,4r)-4-(3-chloro-4-cyanophenoxy)cyclohexyl)-4-(4-((6-(2,6-dioxopiperidin-3-yl)-5,7-dioxo-3,5,6,7-tetrahydropyrrolo[3,4-f]isoindol-2(1H)-yl)methyl)piperidin-1-yl)benzamide] |
| – | 50 to 90% | D | – | N#Cc1ccc(O[C@H]2CC[C@H](Nc3ccc(C(=O)N4CCC(CN5Cc6cc7c(cc6C5)C(=O)N(C5CCC(=O)NC5=O)C7=O)CC4)cc3)CC2)cc1Cl (stereo partly drawn) [compound 9] |
| – | 50 to 90% | D | – | N#Cc1ccc(O[C@H]2CC[C@H](Nc3ccc(C(=O)N4CCC(N5Cc6cc7c(cc6C5)C(=O)N(C5CCC(=O)NC5=O)C7=O)CC4)cc3)CC2)cc1Cl (stereo partly drawn) [compound 10] |
| – | – | D | D | N#Cc1ccc(O[C@H]2CC[C@H](Oc3ccc(C(=O)N4CCC(N5Cc6cc7c(cc6C5)C(=O)N(C5CCC(=O)NC5=O)C7=O)CC4)cc3)CC2)cc1Cl (stereo partly drawn) [compound 11] |
| – | – | D | D | N#Cc1ccc(O[C@H]2CC[C@H](Oc3ccc(C(=O)N4CCC(CN5Cc6cc7c(cc6C5)C(=O)N(C5CCC(=O)NC5=O)C7=O)CC4)cc3)CC2)cc1Cl (stereo partly drawn) [compound 12] |
| > 90% | > 90% | – | – | C[C@H]1C[C@H](NC(=O)c2ccc(N3CCC(N4Cc5cc6c(cc5C4)C(=O)N(C4CCC(=O)NC4=O)C6=O)CC3)cc2)CC[C@H]1Oc1ccc(C#N)c(Cl)c1 (stereo partly drawn) [compound 13] |
| > 90% | > 90% | – | – | C[C@H]1C[C@H](NC(=O)c2ccc(N3CCC(CN4Cc5cc6c(cc5C4)C(=O)N(C4CCC(=O)NC4=O)C6=O)CC3)cc2)CC[C@H]1Oc1ccc(C#N)c(Cl)c1 (stereo partly drawn) [compound 14] |
| > 90% | > 90% | – | – | C[C@H]1C[C@@H](NC(=O)c2ccc(N3CCC(CN4Cc5cc6c(cc5C4)C(=O)N(C4CCC(=O)NC4=O)C6=O)CC3)cc2)CC[C@@H]1Oc1ccc(C#N)c(Cl)c1 (stereo partly drawn) [compound 15] |
| > 90% | > 90% | – | – | C[C@H]1C[C@@H](NC(=O)c2ccc(N3CCC(N4Cc5cc6c(cc5C4)C(=O)N(C4CCC(=O)NC4=O)C6=O)CC3)cc2)CC[C@@H]1Oc1ccc(C#N)c(Cl)c1 (stereo partly drawn) [compound 16] |
| 50 to 90% | > 90% | – | – | N#Cc1ccc(O[C@H]2CC[C@H](NC(=O)c3ccc(N4CC(CN5Cc6cc7c(cc6C5)C(=O)N(C5CCC(=O)NC5=O)C7=O)C4)cc3)CC2)cc1Cl (stereo partly drawn) [compound 21] |
| > 90% | > 90% | – | – | N#Cc1ccc(O[C@H]2CC[C@H](NC(=O)c3ccc4c(c3)CCN(C(=O)CN3Cc5cc6c(cc5C3)C(=O)N(C3CCC(=O)NC3=O)C6=O)C4)CC2)cc1Cl (stereo partly drawn) [compound 24] |
| > 90% | > 90% | – | – | N#Cc1ccc(O[C@H]2CC[C@H](NC(=O)c3ccc4c(c3)CCN(C(=O)CN3Cc5cc6c(cc5C3)C(=O)N(C3CCC(=O)NC3=O)C6=O)CC4)CC2)cc1Cl (stereo partly drawn) [compound 25] |
| 50 to 90% | > 90% | – | – | N#Cc1ccc(O[C@H]2CC[C@H](NC(=O)c3ccc4c(c3)CCN(CC(=O)N3Cc5cc6c(cc5C3)C(=O)N(C3CCC(=O)NC3=O)C6=O)C4)CC2)cc1Cl (stereo partly drawn) [compound 27, N-((1r,4r)-4-(3-chloro-4-cyanophenoxy)cyclohexyl)-2-(2-(6-(2,6-dioxopiperidin-3-yl)-5,7-dioxo-3,5,6,7-tetrahydropyrrolo[3,4-f]isoindol-2(1H)-yl)-2-oxoethyl)-1,2,3,4-tetrahydroisoquinoline-6-carboxamide] |
| 50 to 90% | 50 to 90% | – | – | N#Cc1ccc(O[C@H]2CC[C@H](NC(=O)c3ccc4c(c3)CCN(CC(=O)N3CCc5cc6c(cc5C3)C(=O)N(C3CCC(=O)NC3=O)C6=O)C4)CC2)cc1Cl (stereo partly drawn) [compound 28] |

| Structure (SMILES) | percent AR protein degradation at 0.01 µM | percent AR protein degradation at 0.1 µM | AR protein degradation VCap 10 nM | AR protein degradation VCap 100 nM |
| --- | --- | --- | --- | --- |
| N#Cc1ccc(N[C@H]2CC[C@H](NC(=O)c3ccc(N4CCC(N5Cc6cc7c(cc6C5)C(=O)N(C5CCC(=O)NC5=O)C7=O)CC4)cc3)CC2)cc1Cl (stereo partly drawn) [compound 17] | > 90% | > 90% | – | – |
| N#Cc1ccc(N[C@H]2CC[C@H](NC(=O)c3ccc(N4CCC(CN5Cc6cc7c(cc6C5)C(=O)N(C5CCC(=O)NC5=O)C7=O)CC4)cc3)CC2)cc1Cl (stereo partly drawn) [compound 18] | 50 to 90% | > 90% | – | – |
| CN(c1ccc(C#N)c(Cl)c1)C1CCC(NC(=O)c2ccc(N3CCC(N4Cc5cc6c(cc5C4)C(=O)N(C4CCC(=O)NC4=O)C6=O)CC3)cc2)CC1 (stereo not drawn) [compound 19, N-((1r,4r)-4-((3-chloro-4-cyanophenyl)(methyl)amino)cyclohexyl)-4-(4-(6-(2,6-dioxopiperidin-3-yl)-5,7-dioxo-3,5,6,7-tetrahydropyrrolo [3,4-f]isoindol-2(1H)-yl)piperidin-1-yl)benzamide] | > 90% | > 90% | – | – |
| CN(c1ccc(C#N)c(Cl)c1)[C@H]1CC[C@H](NC(=O)c2ccc(N3CCC(CN4Cc5cc6c(cc5C4)C(=O)N(C4CCC(=O)NC4=O)C6=O)CC3)cc2)CC1 (stereo partly drawn) [compound 20, N-((1r,4r)-4-((3-chloro-4-cyanophenyl)(methyl)amino)cyclohexyl)-4-(4-((6-(2,6-dioxopiperidin-3-yl)-5,7-dioxo-3,5,6,7-tetrahydropyrrolo [3,4-f]isoindol-2(1H)-yl)methyl)piperidin-1-yl)benzamide] | > 90% | > 90% | – | – |
| N#Cc1ccc(N[C@H]2CC[C@H](NC(=O)c3ccc(N4CC(CN5Cc6cc7c(cc6C5)C(=O)N(C5CCC(=O)NC5=O)C7=O)C4)cc3)CC2)cc1Cl (stereo partly drawn) [compound 22] | 50 to 90% | > 90% | – | – |
| CN(c1ccc(C#N)c(Cl)c1)[C@H]1CC[C@H](NC(=O)c2ccc(N3CC(CN4Cc5cc6c(cc5C4)C(=O)N(C4CCC(=O)NC4=O)C6=O)C3)cc2)CC1 (stereo partly drawn) [compound 23] | > 90% | > 90% | – | – |
| N#Cc1ccc(N2CC[C@H]3C[C@H](NC(=O)c4ccc(N5CCC(CN6Cc7cc8c(cc7C6)C(=O)N(C6CCC(=O)NC6=O)C8=O)CC5)cc4)CC[C@H]32)cc1Cl (stereo partly drawn) [compound 26] | 10 to 50% | 50 to 90% | – | – |
